ChEMBL document CHEMBL1140601, “Quantitative structure-activity relationship (QSAR) of tacrine derivatives against acetylcholinesterase (AChE) activity using variable selections” (Bioorg Med Chem Lett, 2007)

Target: Acetylcholinesterase (Homo sapiens) (UniProt P22303)
Sequence (P22303 whole entry): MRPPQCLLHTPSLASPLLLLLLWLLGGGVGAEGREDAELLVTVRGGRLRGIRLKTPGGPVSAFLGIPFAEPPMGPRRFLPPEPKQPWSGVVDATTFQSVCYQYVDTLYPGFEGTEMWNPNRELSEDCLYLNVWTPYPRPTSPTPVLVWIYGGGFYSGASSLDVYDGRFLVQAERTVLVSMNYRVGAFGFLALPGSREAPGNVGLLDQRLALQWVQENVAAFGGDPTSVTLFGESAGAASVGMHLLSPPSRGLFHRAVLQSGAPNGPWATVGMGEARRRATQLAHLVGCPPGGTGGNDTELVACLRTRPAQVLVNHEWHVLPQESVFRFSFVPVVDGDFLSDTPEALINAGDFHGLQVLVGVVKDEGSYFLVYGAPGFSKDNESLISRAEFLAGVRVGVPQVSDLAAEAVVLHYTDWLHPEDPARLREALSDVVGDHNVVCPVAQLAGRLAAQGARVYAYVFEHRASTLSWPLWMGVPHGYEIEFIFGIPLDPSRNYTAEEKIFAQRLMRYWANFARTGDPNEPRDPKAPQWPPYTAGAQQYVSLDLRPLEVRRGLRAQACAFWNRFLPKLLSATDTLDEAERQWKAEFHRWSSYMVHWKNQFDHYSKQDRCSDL
Description: Inhibition of AchE relative to tacrine

Structure (SMILES): CCOC(=O)C1=C(C)Oc2nc3c(c(N)c2C1c1ccncc1)CCCCC3 (stereo unspecified)
- logRA: -1.79

Structure (SMILES): CNc1c2c(nc3ccccc13)-c1ccccc1C2
- logRA: -0.716

Structure (SMILES): Nc1c2c(nc3ccccc13)CSCC2O (stereo unspecified)
- logRA: -0.852

Structure (SMILES): CCOC(=O)c1c(C)nc2nc3c(c(N)c2c1-c1ccc(OC)cc1)CCCC3
- logRA: -1.84

Structure (SMILES): CCOC(=O)C1=C(C)Oc2nc3c(c(N)c2C1c1ccccc1OC)CCCCC3 (stereo unspecified)
- logRA: -2.07

Structure (SMILES): CCOC(=O)C1=C(C)Oc2nc3c(c(N)c2C1c1cccc(OC)c1)CCCCC3 (stereo unspecified)
- logRA: -1.86

Structure (SMILES): CCOC(=O)C1=C(C)Oc2nc3c(c(N)c2C1c1ccccc1OC)CCC3 (stereo unspecified)
- logRA: -2.12

Structure (SMILES): Clc1ccc2c(NCCCCCCNc3c4c(nc5cc(Cl)ccc35)CCCC4)c3c(nc2c1)CCCC3
- logRA: 2.74

Structure (SMILES): CCOC(=O)c1c(C)nc2nc3c(c(N)c2c1-c1ccncc1)CCC3
- logRA: -1.77

Structure (SMILES): CCOC(=O)c1c(C)nc2nc3c(c(N)c2c1-c1ccccc1)CCCC3
- logRA: -0.801

Structure (SMILES): CCOC(=O)C1=C(C)Oc2nc3c(c(N)c2C1c1ccccc1OC)CCCC3 (stereo unspecified)
- logRA: -1.63

Structure (SMILES): CCOC(=O)c1c(C)nc2nc3c(c(N)c2c1-c1cccs1)CCCC3
- logRA: -2.25

Structure (SMILES): CC1=CC2Cc3nc4cc(Cl)ccc4c(NCCCCCCCNc4c5c(nc6ccccc46)CCCC5)c3C(C1)C2 (stereo unspecified)
- logRA: 2.78

Structure (SMILES): CC1=CC2Cc3nc4cc(Cl)ccc4c(NCCCN(C)CCCNc4c5c(nc6ccccc46)CCCC5)c3C(C1)C2 (stereo unspecified)
- logRA: 2.81

Structure (SMILES): CCOC(=O)c1c(C)nc2nc3c(c(N)c2c1-c1cccn1C(C)=O)CCCC3
- logRA: -1.08

Structure (SMILES): CCOC(=O)C1=C(C)Oc2nc3c(c(N)c2C1c1ccc(OC)cc1)CCCC3 (stereo unspecified)
- logRA: -0.825

Structure (SMILES): Fc1ccc2c(NCCCCCCCCNc3c4c(nc5cc(F)ccc35)CCCC4)c3c(nc2c1)CCCC3
- logRA: 2.68

Structure (SMILES): Nc1c2c(nc3ccccc13)-c1ccccc1C2
- logRA: -0.435

Structure (SMILES): CCOC(=O)C1=C(C)Oc2nc3c(c(N)c2C1c1ccc(OC)c(OC)c1)CCCCC3 (stereo unspecified)
- logRA: -2.26

Structure (SMILES): CCOC(=O)c1c(C)nc2nc3c(c(N)c2c1-c1ccc(OC)c(OC)c1)CCCC3
- logRA: -0.859

Structure (SMILES): CCOC(=O)c1c(C)nc2nc3c(c(N)c2c1-c1cccc(OC)c1)CCCC3
- logRA: -0.824

Structure (SMILES): CC1=CC2Cc3nc4ccccc4c(NCCCCCCCCNc4c5c(nc6ccccc46)CCCC5)c3C(C1)C2 (stereo unspecified)
- logRA: 2.4

Structure (SMILES): CCOC(=O)c1c(C)nc2nc3c(c(N)c2c1-c1cccs1)CCC3
- logRA: -2.3

Structure (SMILES): CCOC(=O)c1c(C)nc2nc3c(c(N)c2c1-c1ccncc1)CCCC3
- logRA: -1

Structure (SMILES): COc1ccc2c(c1)Cc1c-2nc2ccccc2c1N
- logRA: -1.42

Structure (SMILES): CCOC(=O)C1=C(C)Oc2nc3c(c(N)c2C1c1ccc(OC)c(OC)c1)CCC3 (stereo unspecified)
- logRA: -2.18

Structure (SMILES): Fc1ccc2c(NCCCCCCCNc3c4c(nc5ccccc35)CCC4)c3c(nc2c1)CCC3
- logRA: 0.647

Structure (SMILES): CCOC(=O)C1=C(C)Oc2nc3c(c(N)c2C1c1ccc(C#N)cc1)CCCC3 (stereo unspecified)
- logRA: -1.43

Structure (SMILES): CCOC(=O)C1=C(C)Oc2nc3c(c(N)c2C1c1ccc(C)cc1)CCCC3 (stereo unspecified)
- logRA: -1.15

Structure (SMILES): CCOC(=O)c1c(C)nc2nc3c(c(N)c2c1-c1ccc(OC)c(OC)c1)CCCCC3
- logRA: -1.55

Structure (SMILES): CCOC(=O)C1=C(C)Oc2nc3c(c(N)c2C1c1cccnc1)CCCC3 (stereo unspecified)
- logRA: -1.71

Structure (SMILES): CCOC(=O)C1=C(C)Oc2nc3c(c(N)c2C1c1ccncc1)CCC3 (stereo unspecified)
- logRA: -1.67

Structure (SMILES): CCOC(=O)C1=C(C)Oc2nc3c(c(N)c2C1c1ccc(Cl)cc1)CCCC3 (stereo unspecified)
- logRA: -1.17

Structure (SMILES): CC1=CC2Cc3nc4cc(Cl)ccc4c(NCCCCCCCNc4c5c(nc6cc(Cl)ccc46)CCCC5)c3C(C1)C2 (stereo unspecified)
- logRA: 2.79

Structure (SMILES): Nc1c2c(nc3ccccc13)CSCC2=O
- logRA: -0.745

Structure (SMILES): c1ccc2c(NCCCCCCCNc3c4c(nc5ccccc35)CCCC4)c3c(nc2c1)CCCC3
- logRA: 2.41

Structure (SMILES): CC1=CC2Cc3nc4cc(Cl)ccc4c(NCCCCCCCCNc4c5c(nc6cc(Cl)ccc46)CCCC5)c3C(C1)C2 (stereo unspecified)
- logRA: 2.71

Structure (SMILES): Nc1c2c(nc3ccccc13)-c1ccc(Cl)cc1C2
- logRA: -1.33

Structure (SMILES): Cc1cccc2c1Cc1c-2nc2ccccc2c1N
- logRA: -1.19

Structure (SMILES): CCOC(=O)C1=C(C)Oc2nc3c(c(N)c2C1c1ccncc1)CCCC3 (stereo unspecified)
- logRA: -1.33

Structure (SMILES): CCOC(=O)c1c(C)nc2nc3c(c(N)c2c1-c1ccc(Cl)cc1)CCCC3
- logRA: -0.859

Structure (SMILES): Nc1c2c(nc3cc(F)ccc13)-c1ccccc1C2
- logRA: -0.681

Structure (SMILES): CCOC(=O)c1c(C)nc2nc3c(c(N)c2c1-c1ccccc1)CCCCC3
- logRA: -0.768

Structure (SMILES): Cc1ccc2c(c1)-c1nc3ccccc3c(N)c1C2
- logRA: -1.26

Structure (SMILES): c1ccc2c(NCCCCCCCCNc3c4c(nc5ccccc35)CCCC4)c3c(nc2c1)CCCC3
- logRA: 2.32

Structure (SMILES): CCOC(=O)c1c(C)nc2nc3c(c(N)c2c1-c1ccncc1)CCCCC3
- logRA: -1.56

Structure (SMILES): COc1cccc2c1Cc1c-2nc2ccccc2c1N
- logRA: -0.806

Structure (SMILES): CC1=CC2Cc3nc4cc(Cl)ccc4c(NCCCCCCNc4c5c(nc6ccccc46)CCCC5)c3C(C1)C2 (stereo unspecified)
- logRA: 2.61

Structure (SMILES): Fc1ccc2c(NCCCCCCNc3c4c(nc5cc(F)ccc35)CCCC4)c3c(nc2c1)CCCC3
- logRA: 2.57

Structure (SMILES): CC1=CC2Cc3nc4cc(Cl)ccc4c(NCCCCCCCCNc4c5c(nc6ccccc46)CCCC5)c3C(C1)C2 (stereo unspecified)
- logRA: 2.79

Structure (SMILES): c1ccc2c(NCCCCCCNc3c4c(nc5ccccc35)CCCCC4)c3c(nc2c1)CCCCC3
- logRA: 2.19

Structure (SMILES): Nc1ccc2nc3c(c(N)c2c1)Cc1ccccc1-3
- logRA: -1.37

Structure (SMILES): c1ccc2c(NCCCCCCNc3c4c(nc5ccccc35)CCCC4)c3c(nc2c1)CCCC3
- logRA: 2.38

Structure (SMILES): CCOC(=O)c1c(C)nc2nc3c(c(N)c2c1-c1ccc(F)cc1)CCCCC3
- logRA: -1.48

Structure (SMILES): CCOC(=O)C1=C(C)Oc2nc3c(c(N)c2C1c1cccc([N+](=O)[O-])c1)CCCC3 (stereo unspecified)
- logRA: -1.16

Structure (SMILES): CCOC(=O)c1c(C)nc2nc3c(c(N)c2c1-c1cccc([N+](=O)[O-])c1)CCCC3
- logRA: -0.713

Structure (SMILES): CCOC(=O)C1=C(C)Oc2nc3c(c(N)c2C1c1ccccc1)CCCC3 (stereo unspecified)
- logRA: -1.08

Structure (SMILES): CCOC(=O)c1c(C)nc2nc3c(c(N)c2c1-c1ccccc1)CCC3
- logRA: -1.96

Structure (SMILES): CCOC(=O)c1c(C)nc2nc3c(c(N)c2c1-c1ccc(OC)cc1)CCCCC3
- logRA: -1.02

Structure (SMILES): Nc1c2c(nc3ccccc13)C[S+]([O-])CC2O (stereo unspecified)
- logRA: -0.745

Structure (SMILES): Nc1c2c(nc3cc(Cl)ccc13)-c1ccccc1C2
- logRA: -1.42

Structure (SMILES): COc1ccc2c(c1)-c1nc3ccccc3c(N)c1C2
- logRA: -1.24

Structure (SMILES): CCOC(=O)c1c(C)nc2nc3c(c(N)c2c1-c1ccc(OC)cc1)CCC3
- logRA: -2.02

Structure (SMILES): CCOC(=O)c1c(C)nc2nc3c(c(N)c2c1-c1ccc(F)cc1)CCCC3
- logRA: -0.596

Structure (SMILES): CC1=CC2Cc3nc4cc(Cl)ccc4c(NCCCN(C)CCCNc4c5c(nc6cc(Cl)ccc46)CCCC5)c3C(C1)C2 (stereo unspecified)
- logRA: 2.85

Structure (SMILES): CC1=CC2Cc3nc4cc(Cl)ccc4c(NCCCCCCNc4c5c(nc6cc(Cl)ccc46)CCCC5)c3C(C1)C2 (stereo unspecified)
- logRA: 2.66

Structure (SMILES): Cc1nc2nc3c(c(N)c2c(-c2ccccc2)c1C(=O)OC(C)C)CCCC3
- logRA: -0.824

Structure (SMILES): O=C(CNc1c2c(nc3ccccc13)CCCC2)NCCC1CCN(c2ccccc2)CC1
- logRA: 1.57

Structure (SMILES): CCOC(=O)C1=C(C)Oc2nc3c(c(N)c2C1c1ccc(OC)c(OC)c1)CCCC3 (stereo unspecified)
- logRA: -1.41

Structure (SMILES): CCOC(=O)C1=C(C)Oc2nc3c(c(N)c2C1c1ccccc1)CCC3 (stereo unspecified)
- logRA: -1.48

Structure (SMILES): CCOC(=O)c1c(C)nc2nc3c(c(N)c2c1-c1cccs1)CCCCC3
- logRA: -2.01
